Results taken from patent US5998596A, “Inhibition of protein kinase activity by aptameric action of oligonucleotides” (The United States of America as represented by the …).

Assays:
p210^bcr-abl kinase = test: Immunoprecipitation kinase assay of p210bcr-abl (autophosphorylation), ODN added to kinase reaction; type: biochemical, human; details: for inhibition of p210^bcr-abl kinase activity in vitro (in words): ODN at 1 μM added to the immunoprecipitated enzyme
Method: (§1) The p210^bcr-abl kinase, src kinase and cdc-2 kinase were immunoprecipitated from K562 cells. The p145^abl kinase was immunoprecipitated from PC3M cells, PDGF receptor kinase from 3T3 cells, and EGF receptor kinase from A431 cells. MAP kinase was utilized as a pure protein and lck kinase was immunoprecipitated from peripheral blood lymphocytes of a normal volunteer.
Cells were washed in phosphate buffered saline (PBS) and 0.5-5×10^6 cells were solubilized in 1 ml of the specified cell lysis buffers. Unless otherwise stated, all cell lysis buffers contained the following protease inhibitors: 20 μg/ml leupeptin, 1 μg/ml aprotinin, and 1 mM phenylmethylsulfonylfluroide. For p210^bcr-abl and […] immunoprecipitation, cells were lysed with ABL lysis buffer (25 mM imidazole, pH 7.2, 0.5% NP40, 50 mM NaCl, 1 mM Na3 VO4) and lysates were clarified at 14,000 g. 4° C. for 30 minutes. Cell lysis for all other proteins was performed according to the references describing the various immunoprecipitation kinase assays.
(§2) Immunoprecipitation kinase assays of p210^bcr-abl p145^abl were performed as described, with modifications (15). Briefly, for p210^bcr-abl, 1 μg of anti-bcr antibody (clone 7C6, Oncogene Science, Uniondale, N.Y.) was added to lysates prepared from 0.5-1×10^6 K562 cells. For p145^abl, 1 μg of anti-c-abl antibody (clone 24-21), which binds to the C-terminal domain of p145^abl, was added to lysates prepared from 5×10^6 PC3M cells. After incubating 1 hour at 4° C., complexes were precipitated by incubating with protein A-Sepharose coated with rabbit anti-mouse immunoglobulin (Cappel Research Products, Durham, N.C.) for 30 minutes. The complexes were then washed as follows: ABL lysis buffer×2, PBS×1, and ABL assay buffer×1 (24 mM imidazole, pH 7.2, 1 mg/ml bovine serum albumin, and 10 mM MnCl). For p145^abl assays ABL assay buffer contained 20 mM MnCl. To access the activity of p210^bcr-abl on substrate phosphorylation, acid inactivated enolase (Sigma Chemical Co., St. Louis, Mo.) was added as described (15).
(§3) ODNs were added to kinase reaction buffers not more than 5 minutes prior to the addition of ATP. Reactions were initiated by the addition of [γ^-32 P] ATP (3000 Ci/mmole; Amersham Corp., Arlington Heights, Ill.) and quenched by the addition of 5× gel loading buffer and heating to 95° C. Kinase reactions were run for 1-10 minutes at room temperature, except for EGFR, p145^abl, and MAP kinase, which were run at 30° C. The products were then electrophoresed on SDS-polyacrylamide gels: 7% for p210^bcr-abl, EGFR, and PDGFR, 8% for p145^abl, 10% for src, lck, and cdc-2 kinase, and 12% for MAP kinase. Gels were dried and reaction products were visualized by direct autoradiography at -70° C. with Kodak X-OMAT AR film. To determine the inhibitory concentration 50, i.e., the concentration required to inhibit enzyme activity by 50% (IC50) and Ki values, gel slices containing the band of interest were excised and analyzed by Cerenkov counting.

lck kinase = test: Immunoprecipitation kinase assay of lck; type: biochemical
From the text: as §1
(§4) Epidermal growth factor receptor (EGFR) was immunoprecipitated with 10 ,g anti-EGFR antibody (clone LA1) and human recombinant epidermal growth factor (both from Upstate Biotechnology Inc., Lake Placid, N.Y.). The assay was performed as described (17) but without removing the EGFR from the protein A-antibody solid support. Instead, epidermal growth factor, at a final concentration of 100 nM, was added to the kinase reaction mixture. Platelet derived growth factor receptor (DGFR) was immunoprecipitated with anti-human type A/type B PDGFR antibody (Upstate Biotechnology Inc.) and immune complex kinase assays performed as referenced (18) except that protein A-Sepharose coated with rabbit anti-mouse immunoglobulin was used instead of formalin-fixed Staphylococcus aureus to bind PDGFR-antibody conjugates. C-src was immunoprecipitated with anti-v-src antibody (Ab-1; Oncogene Science) and assayed as previously described (19) with the addition of enolase as exogenous substrate. […]

cdc-2 kinase = cdc-2 kinase assay with dephosphorylated casein; type: biochemical, human; details: Cerenkov counting of excised gel slices
From the text: as §1, §4

MAP kinase = MAP kinase assay with purified enzyme; type: biochemical; details: Cerenkov counting of excised gel slices
From the text: as §1, §4

p145^abl kinase = test: Phosphorylation of exogenous substrate enolase by p145abl; type: biochemical; details: ODN1 concentrations of up to 50 μM
Method: as §2
ODNs were added to kinase reaction buffers not more than 5 minutes prior to the addition of ATP. Reactions were initiated by the addition of [γ^-32 P] ATP (3000 Ci/mmole; Amersham Corp., Arlington Heights, Ill.) and quenched by the addition of 5× gel loading buffer and heating to 95° C. […]

[1] = test system: p210^bcr-abl kinase in K562 cells; test: Immunoprecipitation kinase assay of p210bcr-abl from ODN treated K562 cells; type: cell-based, human; details: K562 cells incubated 3 days with 50 μM ODN, washed
Method: as §2, §3
The effects of ODN1 on a cellular system were assessed. […] After 3 days, cells were washed and p210^bcr-abl kinase activity was measured. […] Neither cellular p210^bcr-abl protein content nor cell growth was affected by ODN treatment (data not shown).

[2] = test system: p210^bcr-abl protein level in K562 cells; test: Western analysis of p210bcr-abl protein level in ODN treated K562 cells; type: cell-based, human; details: one hour after electroporation with 100 μM ODN
Method: For p210^bcr-abl Western analysis, probing was carried out with the ECL Western blotting kit (Amersham) according to manufacturer's instructions. Briefly, membranes were blocked in 5% non-fat dry milk in TTBS for 1 hour, incubated with anti-p210^bcr-abl antibody (clone 8E9, Pharmingen, San Diego, Calif.) diluted 1:500 in TTBS for 1 hour, with sheep anti-mouse horseradish peroxidase-linked antibody (diluted 1:1000) for 1 hour, and lastly incubated in a luminol based detection solution for 1 minute. Membranes were exposed to Kodak X-OMAT AR film for various time periods.
Electroporation was performed as described (40). Briefly, 1-5×10^6 cells in 1 ml of RPMI 1640 with 10% fetal calf serum were placed into 0.4 cm gap electroporation chambers and electroporated with a Cell-Porator Electroporation System 1 (all from GIBCO BRL, Grand Island, N.Y.) at 800 microfarrads, 300 volts, at room temperature. Cells were then incubated at 37° C. for 1 hour before manipulation.

## 5'-GTCCACCATGGCGCGGCCGGC-3' [ODN1] (phosphorothioate caps, further chemistry not given here) [21mer ODN complementary to nucleotides -12 to +9 of the p210bcr-abl mRNA, phosphorothioate capped unless otherwise specified]
p210^bcr-abl kinase; 1 μM BCR-AS, lower concentrations of enolase, three minute reaction
  p210^bcr-abl autophosphorylation in the presence of enolase: only a slight effect
p210^bcr-abl kinase; 1 μM ODN1
  nature of the enzymatic inhibition with respect to ATP: purely noncompetitive
p210^bcr-abl kinase; Cerenkov counting of excised gel slices, mean ± SD
  IC50: 520 ± 120 nM
p210^bcr-abl kinase; ODN 1 μM, phosphorothioate capped, mean ± SE of three experiments
  Percent Remaining Activity of p210^bcr-abl kinase relative to control: 36 ± 1.2%
p210^bcr-abl kinase
  inhibition of p210^bcr-abl kinase activity in vitro (in words): markedly inhibited
p210^bcr-abl kinase; listed as ODN1 phosphorothioate capped
  inhibition of p210^bcr-abl kinase activity in vitro (in words): intermediate potencies
p210^bcr-abl kinase; various [γ-32P]ATP concentrations, presence or absence of 1 μM ODN1, double-reciprocal plot
  Ki: 520 ± 120 nM
Lck kinase; Cerenkov counting of excised gel slices
  IC50: > 50000 nM
Lck kinase; ODN1 concentrations greater than 2 logs above the Ki for p210^bcr-abl
  inhibition of lck (in words): not significantly inhibited
cdc-2 kinase
  IC50: > 50000 nM
MAP kinase
  IC50: > 100000 nM
p145^abl kinase
  inhibition of enolase phosphorylation by p145^abl: no significant inhibition
[1]
  p210^bcr-abl kinase activity of ODN treated K562 cells: significantly decreased
[1]; listed as BCR-AS
  p210^bcr-abl kinase activity of ODN treated K562 cells: reduction
[2]
  p210^bcr-abl protein level: no decrement
